Measurements reported in patent US20240245661A1, “MCT4-TARGETED THERAPEUTICS PREVENTING AKI TO CKD TRANSITION” (Northwestern University, priority 2023, published 2024).
“Also recorded” adds a separate entry of the source.

What was measured:
[1] = system: HPAECs; test: Lactate measurements in HPAEC media; format: cell-based, human; settings: 5 μM, 24 hours; vs vehicle (DMSO)
Protocol: Lactate measurements. […] Then, cell media were collected, and lactate levels were measured by a Lactate assay kit (Sigma, Catalog #MAK064) following the kit's instruction and protocol.

[2] = system: PHD^TiEC mice, post-ischemic kidney; test: Unilateral renal IRI in PHD^TiEC mice, post-ischemic treatment; format: in vivo, mouse; settings: day 14 post uIRI
Excerpt: As the primary metabolic response of the post-ischemic endothelium to HIF stabilization in the context of PHD inactivation was increased glycolysis, we next focused on this aspect. While increased lactate generation and efflux via the transporter MCT4 represent the final steps of hypoxia-induced glycolysis, lactate export was recently shown to be among the four key steps controlling glycolytic flux. […] Indeed, immunofluorescence staining confirmed high expression of MCT4 protein in the post-ischemic kidney endothelium of PHD^TiEC (FIG. 10A and FIG. 19). We next sought to investigate whether increased endothelial MCT4 causally contributes to the maladaptive post-ischemic kidney repair observed in the PHD^TiEC mice. To this end, we used syrosingopine, a dual inhibitor of monocarboxylate transporters MCT1 and MCT4 (60-fold higher potency on MCT4), which leads to end-product inhibition of glycolysis. As depicted in FIG. 10B, PHD^TiEC mice were treated with syrosingopine or vehicle starting on day 2 after uIRI and then every other day until day 14 post uIRI. […] MCT4 inhibition diminishes endothelial derived pro-inflammatory responses induced by hypoxia-reoxygenation and IL-1
Male mice 8-10 weeks of age underwent renal IRI surgery as previously described [Torosyan R, et al. Hypoxic preconditioning protects against ischemic kidney injury through the IDO1/kynurenine pathway. Cell Rep. 2021;36(7):109547]. Anesthesia was induced by IP injection of xylazine (10 mg/kg IP) and ketamine (90-120 mg/kg IP). After making a small midline abdominal incision, the left renal pedicle was occluded by applying a microaneurysm clamp for 25 minutes, while the right kidney was kept intact as an internal control in the unilateral IRI. For bilateral renal IRI, clamps were applied in both renal pedicles for 23 minutes. After the specified time, the clamps were removed, and reperfusion was visually confirmed. The incision site was closed with a 6-0 suture followed by the closure of the skin wound with Michel miniature clips. Throughout the surgical procedure, body temperature was monitored by a rectal probe and controlled with a heating pad at 37° C.
For in vivo MCT4 inhibition studies, mice were treated with syrosingopine (7.5 mg/kg) or vehicle starting on day 2 post IRI every other day until dissection on day 14 post IRI.
(§1) DNA and RNA were extracted and used for genomic or real-time PCR analysis, as previously described [Majmundar A J, et al. Hypoxia-Inducible Factors and the Response to Hypoxic Stress. Mol Cell. 2010; 40(2):294-309]. Real-time PCR was run in the QuantStudio 3 Real-Time PCR system (Applied Biosystems) using SYBR green or TaqMan PCR Master Mix. 18S rRNA was used for normalization.
For the histological examination, kidneys were fixed in 10% formalin buffer and paraffin blocks were prepared. To assess tubular damage and interstitial fibrosis, 5-μm transverse plane kidney sections were separately stained with hematoxylin and eosin (H&E) and Picro-Sirius red. […] Fibrosis was assessed by the percentage of Picro-Sirius red^+ve area determined with ImageJ software (http://rsbweb.nih.gov/ij). For tubular injury scoring and quantification of Picro-Sirius red^+ve area ^310 and ^35 random visual fields of corticomedullary region, respectively were analyzed per kidney section for each sample at a magnification of ×200.

[3] = molecular target: T1, MCT4 (Homo sapiens, UniProt O15427); settings: dual MCT1/MCT4 inhibitor; cited from earlier work
T1 sequence (O15427 2-465 limits assumed): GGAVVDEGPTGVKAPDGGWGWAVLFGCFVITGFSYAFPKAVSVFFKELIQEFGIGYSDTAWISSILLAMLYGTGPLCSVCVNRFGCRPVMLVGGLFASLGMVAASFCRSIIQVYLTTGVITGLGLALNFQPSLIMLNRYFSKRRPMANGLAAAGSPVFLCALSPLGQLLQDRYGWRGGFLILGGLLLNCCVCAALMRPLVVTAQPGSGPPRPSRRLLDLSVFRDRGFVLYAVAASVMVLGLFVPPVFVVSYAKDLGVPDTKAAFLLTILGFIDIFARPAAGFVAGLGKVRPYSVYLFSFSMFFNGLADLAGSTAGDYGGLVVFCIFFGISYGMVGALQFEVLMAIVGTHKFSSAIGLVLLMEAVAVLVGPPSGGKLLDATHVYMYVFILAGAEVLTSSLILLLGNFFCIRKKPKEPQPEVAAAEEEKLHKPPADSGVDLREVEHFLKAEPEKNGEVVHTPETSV
T1 sequence (P35613 140-385 partner limits assumed): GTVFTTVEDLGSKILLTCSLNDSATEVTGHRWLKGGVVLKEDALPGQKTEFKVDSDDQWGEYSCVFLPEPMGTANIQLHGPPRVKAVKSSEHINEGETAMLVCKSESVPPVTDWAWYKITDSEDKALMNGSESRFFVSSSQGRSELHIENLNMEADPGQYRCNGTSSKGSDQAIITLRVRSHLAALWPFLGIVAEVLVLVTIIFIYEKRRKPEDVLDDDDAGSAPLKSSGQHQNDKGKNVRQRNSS

[4] = system: wild type (WT) C57BL/6 mice, post-ischemic (IR) kidney; test: Unilateral ischemia reperfusion injury (uIRI) model of AKI, post-ischemic treatment, wild type mice; format: in vivo, mouse; settings: for reduction in fibrosis assessed by Picro Sirius red staining / perfusion of IR kidney (visual): 7.5 mg/kg IP on alternate days from day 2
Protocol: Wild type (WT) C57BL/6 mice (7 week old) were procured by The Jackson Laboratory and acclimatized for 1 week at standard conditions (23° C.-25° C.; 40-60% humidity with standard diet). Post acclimatization animals were subjected to unilateral ischemia reperfusion (uIRI) model of acute kidney injury (AKI) in mice as described previously. [Rajendran, G et al., 2020, J Am Soc Nephrol 31(3) 501-516] Briefly, adult C57BL/6 mice (8 weeks old) were anesthetized with xylazine (10 mg/kg intraperitoneally) and ketamine (90-120 mg/kg intraperitoneally). Post anesthesia, a small incision in the midline of the abdomen was created and the left renal pedicle was occluded with a microaneurysm clamp, while the right kidney served as an internal control. The abdomen was temporarily partly closed by covering with clean stretch film, and the body temperature was monitored with a rectal probe and maintained at 37° C. using a heating pad. After 25 minutes, the clamps were removed, and reperfusion was visually confirmed. The abdomen was closed with a 6-0 suture and the skin with Michel miniature clips. Post-ischemia reperfusion injury (IRI), mice were randomly divided into two groups: 1. Vehicle treated (WT-Veh) and 2. Syrosingopine treated (WT-Syro). Treatment with syrosingopine or vehicle was initiated on day 2 post-IRI, a time point characterized by established kidney injury. Syrosingopine (Syro) was administered intraperitoneally (7.5 mg/kg body weight, prepared in mixture of DMSO and Tween 80) on alternate days (FIG. 1A). WT-Veh group was treated with mixture of DMSO+Tween 80 (Veh) and served as control group. On days 7 and 14 post-IRI, mice were sacrificed, and kidney damage was examined using standard methods of histopathological and molecular analysis.
Histopathological Analysis Isolated kidneys were fixed in buffered formalin for 24 h and paraffin blocks were papered using automated tissue processor (Leica Biosystems). 5 μm thick paraffin kidney sections were cut and stained with hematoxylin and eosin, and Picro Sirius red. Images were captured under microscope and were analysed using Image J (National Institutes of Health [NIH]). […] Fibrosis was assessed by the percentage of Picro-Sirius red^+ve area determined with ImageJ software (http://rsbweb.nih.gov/ij). For tubular injury scoring and quantification of Picro-Sirius red^+ve area ^310 and ^35 random visual fields of corticomedullary region, respectively were analyzed per kidney section for each sample at a magnification of ×200.
RNA and Protein Analyses RNA was isolated using Trizol from contralateral (uninjured right kidney) and IR (post unilateral clamping left kidney) kidneys and used for real-time quantitative PCR (qPCR) analysis of fibrosis and inflammatory related genes. 18S was used to normalize mRNA.
Total RNA was extracted using TRIzol reagent (n=4). Bulk RNAseq was performed by Admera Health. RNA integrity was checked with an Agilent Technologies 2100 Bioanalyzer. Poly(A) RNA sequencing libraries were prepared. Paired-ended sequencing was performed on an Illumina sequencing system. FastQC (version v0.11.8) was applied to check the quality of raw reads. Trimmomatic (version v0.38) was applied to cut adaptors and trim low-quality bases with the default setting. STAR Aligner version 2.7.1a was used to align the reads. Picard tools (version 2.20.4) was applied to mark duplicates of mapping. The StringTie version 2.0.4 was used to assemble the RNA-Seq alignments into potential transcripts. The featureCounts (version 1.6.0)/HTSeq was used to count mapped reads for genomic features such as genes, exons, promoter, gene bodies, genomic bins and chromosomal locations. The De-Seq2 (version 1.14.1) was used to do differential analysis.

[5] = system: THP-1 monocyte adhesion to HPAECs; test: Endothelial-monocyte cell adhesion assay; format: cell-based, human; settings: 5 μM; hypoxia-reoxygenation and IL-1β; 90 min incubation; vs vehicle
Protocol: (§2) To assess whether MCT4 inhibition acts cell-autonomously in ECs to suppress pro-inflammatory responses, we performed in vitro experiments in which human primary pulmonary artery endothelial cells (HPAECs) were activated by 18 hours exposure to hypoxia (0.5% O2), followed by reoxygenation for 8 hours in the presence of IL-1β treatment (1 ng/mL) (FIG. 11A). To inhibit MCT4, we first used syrosingopine at concentration of 5 μM, which diminished lactate secretion, as indicated by reduction in extracellular lactate levels (FIG. 20A). […] Consistent responses were observed when we used siRNA against MCT4. […] (FIGS. 11D and E).
Human primary pulmonary artery ECs (HPAECs) were obtained from ATCC and grown on gelatin-coated dishes in Endothelial Cell Basal Medium-2 (Lonza, Catalog #CC-3156) supplemented with EGM-2 SingleQuots Supplements (Lonza, Catalog #CC-4176). MCT4 siRNA was purchased from Qiagen (FlexiTube GeneSolution GS9123 for SLC16A3; Catalog #1027416). AllStars negative control siRNA (Qiagen) was used as control siRNA. HiPerFect transfection reagent (Qiagen, Catalog #301707) was used for siRNA transfection experiments. […]
Endothelial-monocyte cell adhesion assay. […] After 90 minutes, floating cells were removed, and fluorescent imaging was performed with quantification of the adhered monocytes using Fiji image J.

[6] = system: human primary pulmonary artery endothelial cells (HPAECs); test: EC adhesion molecule mRNA in HPAECs activated by hypoxia/reoxygenation and IL-1β; format: cell-based; settings: 5 μM; hypoxia 0.5% O2 18 h, reoxygenation 8 h with IL-1β 1 ng/mL; vs vehicle
Protocol: as §2, §1
Human primary pulmonary artery ECs (HPAECs) were obtained from ATCC and grown on gelatin-coated dishes in Endothelial Cell Basal Medium-2 (Lonza, Catalog #CC-3156) supplemented with EGM-2 SingleQuots Supplements (Lonza, Catalog #CC-4176). MCT4 siRNA was purchased from Qiagen (FlexiTube GeneSolution GS9123 for SLC16A3; Catalog #1027416). […]

[7] = 7.5 mg/kg every other day from day 2, vs vehicle
[8] = day 7 and day 14 post IRI, 7.5 mg/kg IP, vs vehicle, 7.5 mg/kg

SMILES: CCOC(=O)Oc1c(OC)cc(C(=O)O[C@@H]2C[C@@H]3CN4CCc5c([nH]c6cc(OC)ccc56)[C@H]4C[C@@H]3[C@H](C(=O)OC)[C@H]2OC)cc1OC [syrosingopine]
- extracellular lactate levels [1]: reduction
- reduction in collagen accumulation (Picro-Sirius red) [2, 7]: ~51%
- reduction in tubular injury scoring [2, 7]: ~37%
- Acta2 mRNA level ([2]; vs vehicle treated group): significantly downregulated
- Loxl2 mRNA level ([2]; vs vehicle treated group): significantly downregulated
- Tgfb1 mRNA level ([2]; vs vehicle treated group): significantly downregulated
- higher potency towards MCT4 than MCT1 [3]: 60 fold
- Icam1 mRNA level in IR kidney (qPCR) [4, 8]: substantially lower levels; also recorded: significant reduction
- Loxl2 mRNA level in IR kidney (qPCR) [4, 8]: substantially lower levels; also recorded: significant reduction
- Tgfβ1 mRNA level in IR kidney (qPCR) [4, 8]: substantially lower levels; also recorded: significant reduction
- Vcam1 mRNA level in IR kidney (qPCR) [4, 8]: substantially lower levels; also recorded: significant reduction
- Picro-Sirius red stained area (fibrosis), image analysis ([4]; day 7 and day 14 post IRI, vs vehicle-treated controls): significantly less staining
- tubular injury scoring ([4]; day 7 and day 14 post-IRI kidneys, 7.5 mg/kg IP, vs vehicle, 7.5 mg/kg): less injury; also recorded: reduced tubular damage
- genes associated with pro-inflammatory pathways (bulk RNA-seq) ([4]; day 7 and day 14 post-IRI kidneys, vs vehicle): suppression
- reduction in fibrosis assessed by Picro Sirius red staining ([4]; day 7 post IRI, vs vehicle): 25%
- reduction in fibrosis assessed by Picro Sirius red staining ([4]; day 14 post IRI, vs vehicle): 62%
- perfusion of IR kidney (visual) ([4]; day 14 post IRI, vs vehicle, 7.5 mg/kg): improved perfusion
- perfusion of IR kidney (visual) ([4]; day 14 post IRI, vs vehicle, listed as Syrosingopine, 7.5 mg/kg): visually better perfused
- genes of metabolic pathways, oxidative phosphorylation and fatty acid metabolism (bulk RNA-seq) ([4]; day 14 post-IRI kidneys, vs vehicle): significantly up-regulated; also recorded: upregulated
- reduction of adhesion of monocytes (THP-1 cells) to HPAECs [5]: ~48%
- ICAM1 mRNA expression [6]: significantly suppressed
- VCAM1 mRNA expression [6]: significantly suppressed
